Earlier results as cited in EP4691467A1, “USE OF INHIBITOR SPECIFICALLY TARGETING NLRP3 INFLAMMASOME” (Sichuan Jianlin Pharmaceutical Co., Ltd, priority 2023, dated 2024).

Assays:
[1] = phase II clinical trials, rheumatoid arthritis; trials suspended
IL-18 = settings: Muckle Wells syndrome
ASC specks = settings: cells pre-treated with MCC950, pro-inflammatory conditions
[2] = test system: experimental autoimmune encephalomyelitis (EAE); settings: in vivo

CC(C)(O)c1coc(S(=O)(=O)NC(=O)Nc2c3c(cc4c2CCC4)CCC3)c1 [MCC950]
hepatotoxicity [1]: excessive hepatotoxicity | production of IL-1β in vivo (IL-1β): reduce | release of IL-18 in plasma (IL-18): shows efficacy in inhibiting | formation of ASC specks (ASC specks): inhibit | lethality of newborn mice (CAPS mouse model): reduce | extension of lifespan (CAPS mouse model; newborn mice): ~20 days | severity of disease models of multiple sclerosis (EAE) [2]: attenuate
